Assay results: patent publication US10603335B2, “Cancer treatment combination compositions, methods and uses” (Board of Supervisors of Louisiana State University and …, priority 2016, dated 2020)

Experiments:
Mia-PaCa-2 spheroids = experiment: 3D spheroid growth (IncuCyte ZOOM), Mia-PaCa-2; assay type: cell-based, human; conditions: for size of the spheroids: MiaPaca-2, gemcitabine 0.5, 1.0, 5.0 μM, LHRH-curcumin 10, 20 μM, 5 days
Description: A protocol that enables the growth of identical size single cancer cell spheroids in Matrigel in 96 well plates has been developed.
Panc-1 and Mia-Paca-2 cells were grown in 10% FBS DMEM. Cells were collected after trypsinization and resuspended in phenol-red free DMEM with 10% FBS. Cells were labeled with CellTracker Red (Life Techmologies) for 5 minutes. After labeling cells were washed with PBS and transfer into 96-well Corning 7007 ULA round bottom plates at 1,000 cells/well in 100 μl phenol-red free media with 10% FBS and 5% Matrigel. […] Spheroids were grown at 37° C. and 5% CO2 in IncuCyte ZOOM (Essen Bioscience). Images were acquired every 4 h for a period of 120 h post-treatment and software analysis was design to identify the red object in the well. The data were expressed as fold increase in spheroids size at the end of the treatment using the “average red object area in the well” as determined by the IncuCyte software analysis. Reproducibility was confirmed in three independent experiments. Spheroids grew at a uniform rate (FIG. 1).

[1] = system: non-target control (NT) Panc-1 spheroides; experiment: 3D spheroid growth, non-target control (NT) Panc-1; assay type: cell-based; conditions: 30 μM
[2] = system: LHRHR knock-down (KD) Panc-1 spheroides; experiment: 3D spheroid growth, LHRHR knock-down (KD) Panc-1; assay type: cell-based; conditions: LHRHR KD Panc-1; 30 μM
[3] = system: cleaved PARP, XIAP and cIAP2 in MiaPaca-2 cells; experiment: Western blot of apoptosis markers and inhibitors of apoptosis, MiaPaca-2; assay type: cell-based, human; conditions: for apoptosis marker cleaved PARP: 24 h post-treatment, LHRH-curcumin 10-100 uM, gemcitabine 1-20 uM
Description: (§1) Pancreatic cells were collected after trypsinization and seeded in 12-well plates for 24 h before treatments. Treatments were performed as described in the Figure legends. Following treatment, whole cell lysates were collected in Laemmli buffer and analyzed by Western blot. The following primary antibodies were used: XIAP, c-IAP2, cleaved PARP, Caspase-3 (all from Cell Signaling), actin (Santa Cruz) and LHRHR (Abcam).
(§2) Western blot analysis. Actin, GAPDH and Ponceau staining were used as loading controls. Gemcitabine was diluted in water. Curcumin and LHRH-curcumin were diluted in DMSO. Cells were treated as follows:
(§3) Western blot analysis. Actin, GAPDH and Ponceau staining were used as loading controls. Gemcitabine was diluted in water. Curcumin and LHRH-curcumin were diluted in DMSO. The cells were treated as follows:
(§4) Western blot analysis. Actin was used as loading control. Both gemcitabine and LHRH-curcumin were diluted in water.

[4] = system: cleaved PARP, XIAP and cIAP2 in Panc-1 cells; experiment: Western blot of apoptosis markers and inhibitors of apoptosis, Panc-1; assay type: cell-based; conditions: for apoptosis marker cleaved PARP: 24 h post-treatment, LHRH-curcumin 10-100 uM, gemcitabine 1-20 uM
Description: as §1, §2, §3, §4

[5] = system: cleaved PARP, XIAP and cIAP2 in AsPC-1 cells; experiment: Western blot of apoptosis markers and inhibitors of apoptosis, AsPC-1; assay type: cell-based; conditions: for XIAP and c-IAP2 protein levels: 24 h; for apoptosis marker cleaved PARP: 24 h post-treatment, LHRH-curcumin 10-100 uM, gemcitabine 1-20 uM
Description: as §1, §2
(§5) Western blot analysis. Actin, GAPDH and Ponceau staining were used as loading controls. Gemcitabine was diluted in water. Curcumin and LHRH-curcumin were diluted in DMSO.

[6] = system: cleaved PARP, XIAP and cIAP2 in BxPC-3 cells; experiment: Western blot of apoptosis markers and inhibitors of apoptosis, BxPC-3; assay type: cell-based; conditions: for XIAP and c-IAP2 protein levels: 24 h; for apoptosis marker cleaved PARP: 24 h post-treatment, LHRH-curcumin 10-100 uM, gemcitabine 1-20 uM
Description: as §1, §2, §5

PDAC PDXs tissue slices = experiment: Live Tissue Sensitivity Assay (LTSA), panel of PDAC PDXs; assay type: cell-based; conditions: 16 PDAC PDXs tested; single agent
Description: (§6) Animal experiment protocol was reviewed and approved by The University of Texas MD Anderson Cancer Center (Houston, Tex.) institutional review board and in accordance with the Guidelines for the Care and Use of Laboratory Animals published by the National Institutes of Health. PDXs were grown from cryopreserved early passages of PDXs in nude mice as described in previous publications (Kim M P, et al, Nat Protoc 2009; 4(11): 1670-80). Briefly, tumor samples stored in CryoStor™ CS10 storage medium were recovered and cut into about 2 mm3 fragments, soaked in Matrigel, and implanted into the subcutaneous space of Balb/c nude mice (5 mice/PDX). Tumors were harvested when they reach 1.5 cm in diameter for generating tissue slices for drug testing with quadruplicates.
(§7) About 100 tissue slices were produced from 1 tumorgraft with tissue slicer and arrayed in 96-well plates with previously established method (Roife D, et al, Clin Cancer Res 2016). […] Same volume of medium with 0.1% DMSO was added into control wells. After 72 hours, tissue viabilities were measured with PrestoBlue method. Viability inhibition will be calculated through normalization of viabilities of tissue slices treated with inhibitor against the viability of control (DMSO treated) slices. Inhibition of viability was further analyzed with t-test. […]

PATX213 tissue slices = experiment: Live Tissue Sensitivity Assay (LTSA), PATX213; assay type: cell-based; conditions: single agent, 72 hours
Description: as §6, §7

PATX193 tissue slices = experiment: Live Tissue Sensitivity Assay (LTSA), PATX193; assay type: cell-based; conditions: 72 hours
Description: as §6, §7

PATX162 tissue slices = experiment: Live Tissue Sensitivity Assay (LTSA), PATX162; assay type: cell-based; conditions: single agent, 72 hours
Description: as §6, §7

PATX176 tissue slices = experiment: Live Tissue Sensitivity Assay (LTSA), PATX176; assay type: cell-based; conditions: 72 hours
Description: as §6, §7

PATX102 tissue slices = experiment: Live Tissue Sensitivity Assay (LTSA), PATX102; assay type: cell-based; conditions: 72 hours
Description: as §6, §7

PATX173 tissue slices = experiment: Live Tissue Sensitivity Assay (LTSA), PATX173; assay type: cell-based; conditions: 72 hours
Description: as §6, §7

PATX141 tissue slices = experiment: Live Tissue Sensitivity Assay (LTSA), PATX141; assay type: cell-based; conditions: 72 hours
Description: as §6, §7

PATX92 tissue slices = experiment: Live Tissue Sensitivity Assay (LTSA), PATX92; assay type: cell-based; conditions: 72 hours
Description: as §6, §7

PATX50 tissue slices = experiment: Live Tissue Sensitivity Assay (LTSA), PATX50; assay type: cell-based; conditions: 72 hours
Description: as §6, §7

PATX118 tissue slices = experiment: Live Tissue Sensitivity Assay (LTSA), PATX118; assay type: cell-based; conditions: 72 hours
Description: as §6, §7

[7] = four mice treated with LHRH-curcumin twice a week (20 mg/kg)
Description: Samples of tumor tissue were weighed, then pulverized using a Bessman Tissue Pulverizer cooled 3-5 minutes in liquid nitrogen. Resultant powder was then placed in glass homogenizing chamber, mixed in PBS to 20% solution, and crushed to produce final homogenate. 200 Ml aliquot of homogenate was dispensed in Axygen 2 mL clear microtube (Part #: MCT-200-C-S). Each sample was extracted with 1 mL 10% methanol/90% ethyl acetate, vortexed, and spun 30 minutes at 14,000 rpm in a cold room centrifuge. The upper organic phase layer was then removed and placed in separate microcentrifuge tubes. The procedure was repeated, and pooled tumor extracts were concentrated using a Savant SpeedVac. Samples were reconstituted in 100 μL of 1 mM ascorbic acidic MeOH (pH 4.6), mixed in a sonication bath for 2 minutes, and 75 μL were injected on-column. Reverse-phase HPLC (Agilent 1100 series) with a Thermo ODS Hypersil 5 μm 250 mm×4.6 mm analytical column (Part #: 30105-252130) operated at ambient temperature was used to quantify curcumin in tumor. The mobile phase was 0.1% TFA (Mobile A) and acetonitrile with 0.08% TFA (Mobile B). […] With all analyses performed at 0.5 mL/min flow rate and fluorescence detection at Ex 420 nm and Em 524 nm, curcumin eluted at about 16.5 minutes.

physchem = conditions: saline (PBS)
[8] = 24 h, 50 uM in the presence of gemcitabine (5 uM)
[9] = 24 h, curcumin, LHRH-curcumin 50 uM and 100 uM alone, gemcitabine alone
[10] = 72 h, LHRH-curcumin 10 uM and 20 uM in the presence of gemcitabine (5 uM and 10 uM)
[11] = 50 uM in the presence of gemcitabine (5 uM)
[12] = curcumin, LHRH-curcumin 50 uM and 100 uM alone, gemcitabine alone

SMILES: COc1cc(/C=C/C(=O)CC(=O)/C=C/c2ccc(OC(=O)CCCC(=O)NCCCC[C@@H](NC(=O)[C@H](Cc3ccc(O)cc3)NC(=O)[C@H](CO)NC(=O)[C@H](Cc3c[nH]c4ccccc34)NC(=O)[C@H](Cc3c[nH]cn3)NC(=O)[C@@H]3CCC(=O)N3)C(=O)N[C@@H](CC(C)C)C(=O)N[C@@H](CCCNC(=N)N)C(=O)N3CCC[C@H]3C(=O)NCC(N)=O)c(OC)c2)ccc1O [LHRH-curcumin, [DLys6]-LHRH-Curcumin]
- efficiency on spheroids growth, Panc-1 versus Mia-PaCa-2 (Mia-PaCa-2 spheroids; 10, 20 and 30 μM, 120 h): more efficient on Panc-1 cells than Mia-PaCa-2 cells
- size of the spheroids (Mia-PaCa-2 spheroids): decrease the size of the spheroids
- spheroids growth [1]: superior to that of LHRH or curcumin alone
- spheroids growth [2]: still has an effect on spheroids growth formed by LHRHR KD cells, its effect was inferior to that of curcumin alone
- XIAP and c-IAP2 protein levels [3, 8]: down-regulated
- XIAP and c-IAP2 protein levels [3, 9]: down-regulated
- apoptosis marker cleaved PARP ([3]; curcumin): initiate apoptosis as illustrated by the presence of cleaved PARP
- XIAP and c-IAP2 protein levels [3, 10]: down-regulated
- XIAP and c-IAP2 protein levels [4, 8]: down-regulated
- XIAP and c-IAP2 protein levels [4, 9]: down-regulated
- apoptosis marker cleaved PARP ([4]; curcumin): initiate apoptosis as illustrated by the presence of cleaved PARP
- XIAP and c-IAP2 protein levels [4, 10]: down-regulated
- XIAP and c-IAP2 protein levels [5, 11]: down-regulated
- XIAP and c-IAP2 protein levels [5, 12]: down-regulated
- apoptosis marker cleaved PARP ([5]; curcumin): initiate apoptosis as illustrated by the presence of cleaved PARP
- XIAP and c-IAP2 protein levels [6, 11]: down-regulated
- XIAP and c-IAP2 protein levels [6, 12]: down-regulated
- apoptosis marker cleaved PARP ([6]; curcumin): initiate apoptosis as illustrated by the presence of cleaved PARP
- number of PDXs sensitive (PDAC PDXs tissue slices): 8
- Sensitivity To LHRH-C (PATX213 tissue slices): Sensitive (The tissue was defined as sensitive to the treatment if both p<0.05 and at least 30% of tissue slice viability on average was inhibited)
- Sensitivity To LHRH-C (PATX193 tissue slices; single agent): Sensitive (The tissue was defined as sensitive to the treatment if both p<0.05 and at least 30% of tissue slice viability on average was inhibited)
- Sensitivity To LHRH-C (PATX162 tissue slices): Sensitive (The tissue was defined as sensitive to the treatment if both p<0.05 and at least 30% of tissue slice viability on average was inhibited)
- Sensitivity To LHRH-C (PATX176 tissue slices; single agent): Resistant
- Sensitivity To LHRH-C (PATX102 tissue slices; single agent): Resistant
- Sensitivity To LHRH-C (PATX173 tissue slices; single agent): Resistant
- Sensitivity To LHRH-C (PATX141 tissue slices; single agent): Resistant
- Sensitivity To LHRH-C (PATX92 tissue slices; single agent): Resistant
- Sensitivity To LHRH-C (PATX50 tissue slices; single agent): Resistant
- Sensitivity To LHRH-C (PATX118 tissue slices; single agent): Resistant
- free curcumin in tumor tissue extract (HPLC peak at approximately 16.5 min) [7]: free curcumin present in the extract
- solubility (physchem): ≥ 24 mg/mL

SMILES: Nc1ccn([C@@H]2O[C@H](CO)[C@@H](O)C2(F)F)c(=O)n1 [gemcitabine, 2′,2′-difluoro 2′deoxycytidine, reference compound]
- size of the spheroids (Mia-PaCa-2 spheroids): decrease the size of the spheroids
- XIAP and c-IAP2 protein levels [3, 9]: doesn't affect XIAP and c-IAP2 levels
- apoptosis marker cleaved PARP ([3]; curcumin): no cleaved PARP was detected
- XIAP and c-IAP2 protein levels [4, 9]: doesn't affect XIAP and c-IAP2 levels
- apoptosis marker cleaved PARP ([4]; curcumin): no cleaved PARP was detected
- XIAP and c-IAP2 protein levels [5, 12]: doesn't affect XIAP and c-IAP2 levels
- apoptosis marker cleaved PARP ([5]; curcumin): Low levels of cleaved PARP was detected
- XIAP and c-IAP2 protein levels [6, 12]: doesn't affect XIAP and c-IAP2 levels
- apoptosis marker cleaved PARP ([6]; curcumin): Low levels of cleaved PARP was detected
- tissue slice viability (PATX193 tissue slices; Gem 10 μM): 92.70
- tissue slice viability (PATX176 tissue slices; Gem 10 μM): 88.23
- tissue slice viability (PATX102 tissue slices; Gem 10 μM): 99.65
- tissue slice viability (PATX173 tissue slices; Gem 10 μM): 89.87
- tissue slice viability (PATX141 tissue slices; Gem 10 μM): 105.35
- tissue slice viability (PATX92 tissue slices; Gem 10 μM): 85.63
- tissue slice viability (PATX50 tissue slices; Gem 10 μM): 104.96
- tissue slice viability (PATX118 tissue slices; Gem 10 μM): 97.56
